Reference: patent US20250129086A1, “COMPOUND FOR DEGRADING EGFR PROTEIN AND USE THEREOF” (TYK MEDICINES, INC., priority 2021, published 2025)

Columns and labels:
[1] = test system: H1975 (EGFR L858R/T790M double mutation); test: Cell antiproliferative assay (CTG, 72 h), H1975; assay type: cell-based, human; details: Table 2, H1975 cells
Outline: (§1)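 Cells seeded at 1500-2500 per well, compounds added about 24 h later as a 1:4 gradient from 10,000 nM top concentration in triplicate. After 72 h, viability read by CellTiter-Glo luminescence relative to 0.1% DMSO and blank-medium controls; IC50 from curve fitting.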

[2] = test system: PC-9 (EGFR exon 19 deletion); test: Cell antiproliferative assay (CTG, 72 h), PC-9; assay type: cell-based, human; details: Table 2, PC-9 cells
Outline: as §1

[3] = test system: HCC827 (exon 19 deletion mutation); test: Cell antiproliferative assay (CTG, 72 h), HCC827; assay type: cell-based, human; details: Table 2, HCC827 cells
Outline: as §1

EGFR = target: T1, EGFR (Homo sapiens, UniProt P00533, DEL746-750); test: EGFR PROTAC In Cell Western assay in HCC827; assay type: cell-based; details: HCC827, EGFR degradation, 16 hours of incubation; for Dmax: HCC827, Table 4
T1 construct: host or cells: HCC827
Excerpt: Test Example 2 EGFR PROTAC in Cell Western Assay
HCC827 cell culture medium was purchased from Corning. Cell line HCC827 was purchased from BeNa Culture Collection; EGF Receptor (D38B1) XP Rabbit mAb antibody and β-Actin (8H10D10) Mouse mAb antibody were from CST. IRDye 800CW, IRDye 680RD, and Intercept blocking solution (PBS) were purchased from Licor. Triton-100 was purchased from sigma, and 96-well black cell culture imaging microtiter plates were purchased from Agilent.
1) HCC827 cells were cell counted and cells were inoculated into 96-well black cell culture imaging microtiter plates at a density of 40,000 cells per well, with 100 μl per well. The plate was incubated overnight in a CO2 incubator.
2) Day 1: A gradient dilution of the compound to be tested was added to the cells of the culture plate (with a starting concentration of […], 9 concentrations, a dilution ratio of 1:3, 2 duplicate wells), with a final concentration of DMSO being 0.5%, and a blank control of DMSO without compound. The plate was placed in the cell culture incubator for a final 16 hours of incubation.
3) The culture medium was removed from the 96 wells with a pipette and the residual medium was washed with […] of PBS per well on a shaker for 5 min. After the removal of PBS, cells were quickly fixed by adding 150 μl of fresh fixation buffer (3.7% paraformaldehyde) and incubated for 20 min at room temperature.
4) The fixation buffer was removed and […] of Triton elution buffer (0.3% Triton-100) was added to wash for four times on a shaker for 5 minutes each time.
5)[…] LI-COR Odyssey blocking solution was added and the cells were incubated for 1.5 hours at room temperature with slow shaking on a shaker.
6) To block the samples, a primary antibody against EGFR and Actin were prepared using Antibody Dilution Buffer at a ratio of 1:300. The blocking solution was poured out and the diluted primary antibody was added (at a total volume of 50 μl/per well). The cell plate was covered and incubated at 4° C. overnight.
7) The cell plate was washed four times with PBS+Triton X-100 for 5 minutes each time.
8) Fluorescently labeled secondary antibodies IRDye® 680RD and IRDye® 800CW were diluted with Antibody Dilution Buffer (with a ratio of 1:600, at a total volume of 50 μl/well) and then incubated for one hour at room temperature, protected from light.
9) The cell plate was washed four times with PBS+Triton X-100 for 5 minutes each time.
After pipetting the PBS thoroughly, the plate was inverted and imaged on a Burroughs imager. A multiple exposure program was selected, IRDye 680RD Blot was chosen for the first channel, and IRDye 800CW Blot was chosen for the second channel. […] The blank group was the DMSO group, EGFR/Actin was calculated as the EGFR value of the corresponding sample wells, and the degradation rate=100-100*EGFR signal/DMSO signal. The DC50 and Dmax of the degraded EGFR proteins were calculated by fitting curves using the Prism software, 3-parameter method.

T1 sequence (P00533 with tags, fused parts or gaps DEL746-750): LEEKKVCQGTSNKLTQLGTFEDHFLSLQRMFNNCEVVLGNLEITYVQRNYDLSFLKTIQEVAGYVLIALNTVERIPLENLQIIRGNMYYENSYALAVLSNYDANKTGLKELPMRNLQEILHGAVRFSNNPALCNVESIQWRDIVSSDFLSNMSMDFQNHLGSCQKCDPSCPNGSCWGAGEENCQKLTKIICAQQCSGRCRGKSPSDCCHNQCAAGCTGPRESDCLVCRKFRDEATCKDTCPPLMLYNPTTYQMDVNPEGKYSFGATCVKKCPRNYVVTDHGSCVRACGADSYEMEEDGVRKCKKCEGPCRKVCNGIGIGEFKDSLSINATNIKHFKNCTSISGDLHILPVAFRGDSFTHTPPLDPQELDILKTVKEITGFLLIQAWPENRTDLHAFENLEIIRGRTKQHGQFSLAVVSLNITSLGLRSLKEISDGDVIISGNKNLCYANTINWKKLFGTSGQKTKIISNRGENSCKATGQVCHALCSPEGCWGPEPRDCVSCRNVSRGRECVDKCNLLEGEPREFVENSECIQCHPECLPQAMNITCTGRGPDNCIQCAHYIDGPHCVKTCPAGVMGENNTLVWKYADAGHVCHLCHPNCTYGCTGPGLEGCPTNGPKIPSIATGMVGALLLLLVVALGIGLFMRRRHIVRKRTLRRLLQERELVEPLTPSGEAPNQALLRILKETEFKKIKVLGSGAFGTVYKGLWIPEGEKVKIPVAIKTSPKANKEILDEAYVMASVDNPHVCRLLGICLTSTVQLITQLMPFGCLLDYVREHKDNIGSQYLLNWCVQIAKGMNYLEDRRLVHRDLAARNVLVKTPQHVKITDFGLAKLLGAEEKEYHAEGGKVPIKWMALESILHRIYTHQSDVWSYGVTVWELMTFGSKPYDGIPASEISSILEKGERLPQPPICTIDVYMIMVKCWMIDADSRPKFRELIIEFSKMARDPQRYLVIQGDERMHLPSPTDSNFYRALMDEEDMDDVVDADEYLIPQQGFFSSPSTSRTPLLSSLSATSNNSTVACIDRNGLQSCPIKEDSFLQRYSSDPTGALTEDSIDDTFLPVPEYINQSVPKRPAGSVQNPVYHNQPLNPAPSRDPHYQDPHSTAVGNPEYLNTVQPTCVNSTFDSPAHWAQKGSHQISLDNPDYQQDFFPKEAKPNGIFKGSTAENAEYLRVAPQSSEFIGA

Structure (SMILES)	IC50 [1] [nM]	IC50 [2] [nM]	IC50 [3] [nM]	DC50 (EGFR; Table 4) [nM]	Dmax(%) (EGFR; Table 4)	IC50 ([1]; Homo sapiens, NCI-H1975, 72 h) [nM]	IC50 ([2]; Homo sapiens, PC-9, 72 h) [nM]	IC50 ([3]; Homo sapiens, HCC827, 72 h) [nM]	Dmax (EGFR) [%]
COc1cc(N2CCC(N(C)C(=O)CN3CCC(c4ccc(NC5CCC(=O)NC5=O)cc4)CC3)CC2)ccc1Nc1ncc(C(F)(F)F)c(Nc2ccccc2C(C)=O)n1 (stereo not drawn) [Compound T-224]	10 to 100	100 to 1000	100 to 1000	10 to 100	C (C<50%)	–	–	–	–
COc1cc(N2CCN(C(=O)CN3CCC(c4ccc(NC5CCC(=O)NC5=O)cc4)CC3)CC2)ccc1Nc1ncc(Cl)c(Nc2ccccc2N(C)S(C)(=O)=O)n1 (stereo not drawn) [Compound T-227]	–	–	–	10 to 100	–	≤ 10	10 to 100	10 to 100	50 to 70
COc1cc(N2CCN(C(=O)CN3CCC(c4ccc(NC5CCC(=O)NC5=O)cc4)CC3)CC2)c(-c2cnn(C)c2)cc1Nc1ncc(Cl)c(Nc2ccccc2C(C)=O)n1 (stereo not drawn) [Compound T-233]	–	–	–	10 to 100	–	10 to 100	100 to 1000	10 to 100	50 to 70
COc1cc(N2CCN(C(=O)CN3CCC(c4ccc(NC5CCC(=O)NC5=O)cc4)CC3)CC2)ncc1Nc1ncc(C(F)(F)F)c(Nc2ccccc2C(C)=O)n1 (stereo not drawn) [Compound T-246]	–	–	–	≤ 10	–	≤ 10	10 to 100	10 to 100	70 to 100
CNC(=O)c1ccccc1Nc1nc(Nc2cc(C)c(N3CCN(C(=O)CN4CCC(c5ccc(NC6CCC(=O)NC6=O)cc5)CC4)CC3)cc2OC)ncc1Cl (stereo not drawn) [Compound T-254]	–	–	–	10 to 100	–	≤ 10	10 to 100	10 to 100	70 to 100
CC(=O)c1ccccc1Nc1nc(Nc2ccc(N3CCN(C(=O)CN4CCC(c5ccc(NC6CCC(=O)NC6=O)cc5)CC4)CC3)cc2Cl)ncc1Cl (stereo not drawn) [Compound T-333]	–	–	–	10 to 100	–	100 to 1000	100 to 1000	100 to 1000	< 50
COc1cc(C2CCN(C(=O)CN3CCC(c4ccc(NC5CCC(=O)NC5=O)cc4)CC3)CC2)ccc1Nc1ncc(Cl)c(Nc2ccccc2C(C)=O)n1 (stereo not drawn) [Compound T-334]	–	–	–	100 to 1000	–	100 to 1000	100 to 1000	100 to 1000	< 50
C=CC(=O)Nc1cc(Nc2ncc(Cl)c(Nc3ccccc3)n2)c(OC)cc1N1CCN(C(=O)CN2CCC(c3ccc(NC4CCC(=O)NC4=O)cc3)CC2)CC1 (stereo not drawn) [Compound T-335]	–	–	–	100 to 1000	–	100 to 1000	100 to 1000	100 to 1000	50 to 70
COc1cc(N2CCC(NC(=O)CN3CCC(c4ccc(NC5CCC(=O)NC5=O)cc4)CC3)CC2)ccc1Nc1ncc(Cl)c(Nc2ccccc2C(C)=O)n1 (stereo not drawn) [Compound T-336]	–	–	–	10 to 100	–	100 to 1000	100 to 1000	100 to 1000	< 50
